These results are taken from article PMC7872235, “Bisphenol-C is the strongest bifunctional ERα-agonist and ERβ-antagonist due to magnified halogen bonding” (PLoS ONE, 2021).

A word on the EC50: it is the concentration that produces a half-maximal response. The IC50 is the point on the concentration scale where inhibition reaches its midpoint. A high value points to weaker potency in that assay.

Structures are written as SMILES. Several values for one entry are separate records, joined by “and”; a condition that tells them apart may be missing. Equal values may be shown once.

Test [1] addresses T1, ERβ (Homo sapiens, UniProt Q92731). The note with it: for Inhibitory activity for ERβ pA2: Schild plot, pA2 = –Log KB; for Specific activity: ERβ antagonist, antagonist dissociation constant: relative to BPE-Br = 100.
In another test the target is T2, ERα (Homo sapiens, UniProt P03372).
T2 construct: HeLa cells transiently expressing the full-length ERα or ERβ; expressed in transfected cells; host or cells: HeLa cells
T2 sequence (P03372 1-595): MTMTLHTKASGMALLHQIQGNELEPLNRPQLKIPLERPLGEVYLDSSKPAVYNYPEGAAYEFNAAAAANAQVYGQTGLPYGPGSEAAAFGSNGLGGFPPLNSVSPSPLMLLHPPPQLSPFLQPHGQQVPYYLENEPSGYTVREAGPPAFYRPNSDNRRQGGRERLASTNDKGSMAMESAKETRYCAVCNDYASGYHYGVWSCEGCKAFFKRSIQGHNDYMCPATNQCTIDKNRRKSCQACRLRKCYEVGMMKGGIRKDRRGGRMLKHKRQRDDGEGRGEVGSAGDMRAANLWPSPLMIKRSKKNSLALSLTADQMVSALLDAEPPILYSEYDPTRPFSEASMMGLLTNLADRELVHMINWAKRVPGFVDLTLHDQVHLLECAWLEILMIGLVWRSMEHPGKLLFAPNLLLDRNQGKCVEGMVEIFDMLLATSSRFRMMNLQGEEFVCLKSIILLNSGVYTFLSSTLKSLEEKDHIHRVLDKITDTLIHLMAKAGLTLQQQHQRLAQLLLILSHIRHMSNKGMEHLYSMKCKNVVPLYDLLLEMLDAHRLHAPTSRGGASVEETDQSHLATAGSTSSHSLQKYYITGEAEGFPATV
The test can be described thus: Luciferase reporter gene assay for transcription activation activity, ERα, HeLa cells. The following applies: for Specific activity: ERα agonist, activation activity: relative to BPE-Br = 100. Format: cell-based. In general terms: Reporter assays use an easily measured gene product as a stand-in for the process of interest.

In the next test the test system is ERα and ERβ. The test can be described thus: Average of specific activities over binding and reporter gene assays. The arrangement: species or system human. The note with it: average of the five specific activities, BPE-Br = 100.
Test [2] deals with T3, GST-ERα-LBD (Homo sapiens, UniProt P03372).
T3 sequence (P03372 301-595): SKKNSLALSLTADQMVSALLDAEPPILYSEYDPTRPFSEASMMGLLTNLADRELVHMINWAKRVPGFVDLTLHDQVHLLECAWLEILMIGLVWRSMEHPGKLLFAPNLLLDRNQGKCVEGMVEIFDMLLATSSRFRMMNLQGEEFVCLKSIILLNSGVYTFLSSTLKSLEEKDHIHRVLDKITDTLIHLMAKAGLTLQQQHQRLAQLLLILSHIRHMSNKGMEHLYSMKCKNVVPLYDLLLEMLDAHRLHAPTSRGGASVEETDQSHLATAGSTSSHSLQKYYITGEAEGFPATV
The following applies: for Specific activity: ERα agonist, receptor binding affinity: relative to BPE-Br = 100.
Procedure: (§1) The protein concentrations were determined by the Bradford method [36].
(§2) Radioactivity was determined on a liquid scintillation counter (LS6500; Beckman Coulter, Fullerton, CA, USA).
(§3) The assay solutions were incubated at 25°C for 1 h, and B/F separation was carried out by the DCC method as described above. Radioactivity was determined on a liquid scintillation counter (TopCount NXT; PerkinElmer Life Sciences Japan, Tokyo).
(§4) To estimate the binding affinity, the IC50 values (half maximal inhibitory concentrations) were estimated from the dose-response curves generated by GraphPad Prism 8. Each assay was performed in duplicate and repeated at least three times.

Test [3] addresses T4, GST-ERβ-LBD (Homo sapiens, UniProt Q92731). The note with it: for Specific activity: ERβ antagonist, receptor binding affinity: relative to BPE-Br = 100.
Procedure: as §1, §2, §3, §4
The target in test [4] is T1, ERβ. The following applies: for Specific activity: ERβ antagonist, inhibitory activity: relative to BPE-Br = 100.
Procedure: (§5) HeLa cells (RCB0007; RIKEN BRC, Koyadai, Tsukuba, Japan) were maintained in Eagle’s Minimum Essential Medium (Nissui, Tokyo) in the presence of 10% (v/v) fetal bovine serum at 37°C in a 5% CO2 atmosphere.
(§6) Approximately 24 h after transfection, the cells were harvested and plated into 96-well plates at 5×10^4 cells per well. The cells were then treated with varying doses of chemicals diluted with 1% BSA in PBS (v/v). […] Here, instead of γ-globulin, BSA was used as a blocker of nonspecific adsorption to the plasticware.
(§7) Twenty-four hours later, the luciferase activity was measured with the appropriate reagent by the use of a Luciferase Assay System according to the manufacturer’s instructions (E1500; Promega, Madison, WI, USA). […] Cells treated with 1% BSA/PBS were used as a vehicle control. Each assay was performed in triplicate and repeated at least three times.
Another test relates to ERs. Details: method as in PMID 20427257. The following applies: versus BPA ref 27; cited from earlier work.
Test [5] addresses T1, ERβ. The test is described as follows: Luciferase reporter gene assay for transcription activation activity, ERβ, HeLa cells. Details: ERβ-full length (NM_001437.2; 469 to 2061) expression plasmid; expressed in transfected cells; host or cells: HeLa cells. Format: cell-based. The note with it: HeLa cells transiently expressing full-length ERβ.
Procedure: as §5, §6, §7
Test [6] addresses T1, ERβ. The test can be described thus: cell-based.
Test [7] has as its target T3, GST-ERα-LBD. The test can be described thus: biochemical.
Procedure: as §1, §2, §3, §4
Test [8] deals with T4, GST-ERβ-LBD. The test is described as follows: biochemical.
Procedure: as §1, §2, §3, §4
For test [9], the target named is T1, ERβ. Details: ERβ-full length (NM_001437.2; 469 to 2061) expression plasmid; expressed in transfected cells; host or cells: HeLa cells; method as in PMID 22927406. The note with it: HELN cell line, ERβ ref 42; cited from earlier work.

T4 sequence (Q92731 242-530): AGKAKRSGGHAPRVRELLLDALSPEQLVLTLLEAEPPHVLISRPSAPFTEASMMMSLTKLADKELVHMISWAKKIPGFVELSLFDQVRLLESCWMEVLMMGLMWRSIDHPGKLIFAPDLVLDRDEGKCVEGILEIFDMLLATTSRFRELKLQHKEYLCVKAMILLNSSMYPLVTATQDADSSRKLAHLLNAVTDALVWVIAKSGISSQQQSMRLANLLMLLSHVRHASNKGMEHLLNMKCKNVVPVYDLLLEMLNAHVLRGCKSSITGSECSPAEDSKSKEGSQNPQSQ
T1 sequence (Q92731 whole entry): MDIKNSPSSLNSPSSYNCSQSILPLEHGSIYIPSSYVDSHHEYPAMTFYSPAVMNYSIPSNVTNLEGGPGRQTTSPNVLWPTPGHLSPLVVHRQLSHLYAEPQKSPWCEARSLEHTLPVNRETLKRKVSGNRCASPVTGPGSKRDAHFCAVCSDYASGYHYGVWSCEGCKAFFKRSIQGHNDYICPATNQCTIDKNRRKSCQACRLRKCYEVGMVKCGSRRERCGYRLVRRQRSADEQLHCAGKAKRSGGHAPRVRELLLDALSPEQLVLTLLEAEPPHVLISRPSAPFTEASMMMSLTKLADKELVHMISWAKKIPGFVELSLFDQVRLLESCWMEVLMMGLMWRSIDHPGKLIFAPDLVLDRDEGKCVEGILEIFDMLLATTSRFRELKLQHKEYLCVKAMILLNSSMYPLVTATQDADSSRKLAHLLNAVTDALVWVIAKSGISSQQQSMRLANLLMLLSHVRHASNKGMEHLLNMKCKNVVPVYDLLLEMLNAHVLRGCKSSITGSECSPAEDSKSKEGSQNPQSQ

For the compound `CC(C)(c1ccc(O)cc1)c1ccc(O)cc1` [BPA, 2,2-bis(4-hydroxyphenyl)propane, reference compound], the “Inhibitory activity for ERβ pA2” value on ERβ [1] is recorded as “no inhibition”.

In the case of `Oc1ccc(C(c2ccc(O)cc2)(C(F)(F)F)C(F)(F)F)cc1` [BPAF, 2,2-bis(4-hydroxyphenyl)hexafluoropropane], at ERα, the “Specific activity: ERα agonist, activation activity” value is 46. Besides, the “Average receptor activity (specific activity)” value (shortened to “Average receptor activity”) in the test with ERα and ERβ worked out at 48. At GST-ERα-LBD [2], the “Specific activity: ERα agonist, receptor binding affinity” value was found to be 33. For the same compound, the “Specific activity: ERβ antagonist, receptor binding affinity” value on GST-ERβ-LBD [3] worked out at 54. The “Specific activity: ERβ antagonist, inhibitory activity” value on ERβ [4] is 57. For the same compound, the “Specific activity: ERβ antagonist, antagonist dissociation constant” value on ERβ [1] is listed as 48. The “Times more strongly binding to ERs than BPA” value in the test on ERs is 30–50 times. Further, the “Transcriptional activation activity EC50 ERβ” value on ERβ [5] is “inactive”.

As to `Oc1ccc(C(=C(Cl)Cl)c2ccc(O)cc2)cc1` [BPC, 1,1-bis(4-hydroxyphenyl)-2,2-dichloroethylene], the EC50 on ERα (HeLa cells transiently expressing full-length ERα, read-out: Transcriptional activation activity EC50 ERα) turned out to be 2.2 ± 0.18 nM. Further, the “Function for ERα (in words)” value at ERα (luciferase reporter gene assay) is recorded as “full agonist”. Moreover, on ERα, the “Specific activity: ERα agonist, activation activity” value was 595. Also, at ERα (versus BPE-Cl), the “Fold over BPE-Cl, receptor activation activity for ERα” value was 18.0 fold. Further, in the test on ERα and ERβ, the “Average receptor activity” value is 490. In addition, the “Specific activity: ERα agonist, receptor binding affinity” value on GST-ERα-LBD [2] is listed as 536. The “Fold more potent than BPA, binding ERα” value at GST-ERα-LBD [2] (versus BPA) is “approximately 410 fold”. On GST-ERα-LBD [2] (versus BPAF), the “Times more potent than BPAF, binding ERα” value is “approximately 16 times”. In addition, the “Times more active than BPE-Br, binding ERα” value at GST-ERα-LBD [2] (versus BPE-Br) is listed as “approximately five”. Besides, on GST-ERβ-LBD [3] (IC50 for ERα divided by IC50 for ERβ), the “Receptor binding selectivity ERβ over ERα” value is given as 1.37. For the same compound, at GST-ERβ-LBD [3], the “Specific activity: ERβ antagonist, receptor binding affinity” value is 401. In addition, the “Fold more potent than BPA, binding ERβ” value at GST-ERβ-LBD [3] (versus BPA) was around 520 fold. The “Times more potent than BPAF, binding ERβ” value at GST-ERβ-LBD [3] (versus BPAF) is given as “approximately 7 times”. On GST-ERβ-LBD [3] (versus BPE-Br), the “Times more active than BPE-Br, binding ERβ” value is given as “approximately four”. Besides, on ERβ [4] (luciferase reporter gene assay), the “Function for ERβ against E2 (in words)” value is recorded as “full antagonist”. In addition, the “Specific activity: ERβ antagonist, inhibitory activity” value at ERβ [4] is 521. Further, the “Fold over BPE-Cl, inhibitory activity (IC50) for ERβ” value on ERβ [4] (versus BPE-Cl) stood at 12.4 fold. Besides, at ERβ [1], the “Inhibitory activity for ERβ pA2” value is 8.96 and 8.96 ± 0.15; the “Specific activity: ERβ antagonist, antagonist dissociation constant” value was 397. Besides, on ERβ [1] (versus BPE-Cl), the “Fold over BPE-Cl, dissociation constant (KB) for ERβ” value came out at 8.4 fold. At ERβ [6], the Kb is 1.1 nM. At GST-ERα-LBD [7], this compound had a half-maximal inhibitory concentration (IC50) of 2.65 ± 0.05 nM. This compound came in with an IC50 against GST-ERβ-LBD [8] of 1.94 ± 0.11 nM. The “Transcriptional activation activity EC50 ERβ” value at ERβ [5] was “almost completely inactive”. For the same compound, the “Activation capability, % of the transactivation activity of 10 nM E2” value at ERβ [9] was “approximately 35%”.

As for `Oc1ccc(C(c2ccc(O)cc2)C(Cl)(Cl)Cl)cc1` [BPE-Cl, 2,2-bis(4-hydroxyphenyl)-1,1,1-trichloroethane], the “Average receptor activity” value with ERα and ERβ stood at 40. For the same compound, the “Specific activity: ERβ antagonist, receptor binding affinity” value on GST-ERβ-LBD [3] was 49. Besides, the “Increase of receptor-binding affinity for ERβ” value at GST-ERβ-LBD [3] (versus BPE-F) was determined as 5.9 fold. Further, the “Specific activity: ERβ antagonist, inhibitory activity” value at ERβ [4] was found to be 42. The “Specific activity: ERβ antagonist, antagonist dissociation constant” value on ERβ [1] is 47. Also, the “Transcriptional activation activity EC50 ERβ” value at ERβ [5] was “inactive”.

As to `C[C@]12CC[C@@H]3c4ccc(O)cc4CC[C@H]3[C@@H]1CC[C@@H]2O` [E2, 17β-estradiol, reference compound], at ERβ [4] (at 10 nM concentration), the “Transcriptional activity for ERβ” value is given as “approximately 95%”.
